Structures can show the parent of a compound that is named as a salt.
How the values were obtained:
[1] = biological target: T1, isolated recombinant JAK2 kinase domain (Homo sapiens, UniProt O60674); assay: JAK enzyme assay (Caliper LabChip), JAK2; type: biochemical; conditions: 0.2 nM JAK2, ATP 25 μM, 22° C., 30 minutes; Morrison tight binding model
T1 construct: isolated recombinant JAK1 and JAK2 kinase domain
Experimental: (§1) The activity of the isolated recombinant JAK1 and JAK2 kinase domain was measured by monitoring phosphorylation of a peptide derived from JAK3 (Val-Ala-Leu-Val-Asp-Gly-Tyr-Phe-Arg-Leu-Thr-Thr, fluorescently labeled on the N-terminus with 5-carboxyfluorescein) using the Caliper LabChip® technology (Caliper Life Sciences, Hopkinton, Mass.). To determine inhibition constants (Ki), compounds were diluted serially in DMSO and added to 50 μL kinase reactions containing purified enzyme (1.5 nM JAK1, or 0.2 nM JAK2), 100 mM HEPES buffer (pH 7.2), 0.015% Brij-35, 1.5 μM peptide substrate, ATP (25 μM), 10 mM MgCl2, 4 mM DTT at a final DMSO concentration of 2%. Reactions were incubated at 22° C. in 384-well polypropylene microtiter plates for 30 minutes and then stopped by addition of 25 μL of an EDTA containing solution (100 mM HEPES buffer (pH 7.2), 0.015% Brij-35, 150 mM EDTA), resulting in a final EDTA concentration of 50 mM. After termination of the kinase reaction, the proportion of phosphorylated product was determined as a fraction of total peptide substrate using the Caliper LabChip® 3000 according to the manufacturer's specifications. Ki values were then determined using the Morrison tight binding model (Morrison, J. F., Biochim. Biophys. Acta. 185:269-296 (1969); William, J. W. and Morrison, J. F., Meth. Enzymol., 63:437-467 (1979)) modified for ATP-competitive inhibition [Ki ═Ki,app/(1+[ATP]/Km,app)].

[2] = biological target: T2, isolated recombinant JAK1 kinase domain (Homo sapiens, UniProt P23458); assay: JAK enzyme assay (Caliper LabChip), JAK1; type: biochemical; conditions: 1.5 nM JAK1, ATP 25 μM, 22° C., 30 minutes; Morrison tight binding model
T2 construct: isolated recombinant JAK1 and JAK2 kinase domain
T2 sequence (P23458 875-1153 limits assumed): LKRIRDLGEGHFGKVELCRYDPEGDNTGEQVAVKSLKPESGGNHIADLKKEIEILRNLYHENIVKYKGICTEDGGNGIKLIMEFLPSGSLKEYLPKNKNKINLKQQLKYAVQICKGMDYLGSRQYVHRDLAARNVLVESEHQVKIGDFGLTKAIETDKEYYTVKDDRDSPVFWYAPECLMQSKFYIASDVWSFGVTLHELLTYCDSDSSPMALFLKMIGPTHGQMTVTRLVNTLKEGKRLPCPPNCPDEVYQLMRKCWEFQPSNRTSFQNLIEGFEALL
Experimental: as §1

T1 sequence (O60674 849-1124 limits assumed): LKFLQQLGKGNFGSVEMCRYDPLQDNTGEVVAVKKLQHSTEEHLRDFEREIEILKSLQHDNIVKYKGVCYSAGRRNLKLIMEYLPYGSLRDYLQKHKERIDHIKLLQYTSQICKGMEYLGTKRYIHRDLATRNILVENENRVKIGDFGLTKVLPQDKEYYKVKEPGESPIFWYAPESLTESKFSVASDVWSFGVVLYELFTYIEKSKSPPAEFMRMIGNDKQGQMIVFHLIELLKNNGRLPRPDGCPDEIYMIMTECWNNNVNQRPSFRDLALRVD

SMILES	Ki [1] [nM]	Ki [2] [nM]
Cn1cc(Nc2nc3c(N4CCC(c5ccc(Cl)cc5)(C(O)CN5CCOCC5)CC4)cccn3n2)cn1 (racemic) [B, 1-[4-(4-chlorophenyl)-1-[2-[(1-methylpyrazol-4-yl)amino]-[1,2,4]triazolo[1,5-a]pyridin-8-yl]-4-piperidyl]-2-morpholino-ethanol]	0.58	0.97
CN(C)CC(O)C1(c2ccc(Cl)cc2)CCN(c2cccn3nc(Nc4cnn(C)c4)nc23)CC1 (racemic) [C, 1-[4-(4-chlorophenyl)-1-[2-[(1-methylpyrazol-4-yl)amino]-[1,2,4]triazolo[1,5-a]pyridin-8-yl]-4-piperidyl]-2-(dimethylamino)ethanol]	2.9	1.8
Cn1cc(Nc2nc3c(N4CCC(CO)(c5ccc(Cl)cc5)CC4)cccn3n2)cn1 [A, [4-(4-chlorophenyl)-1-[2-[(1-methylpyrazol-4-yl)amino]-[1,2,4]triazolo[1,5-a]pyridin-8-yl]-4-piperidyl]methanol]	0.13	0.18
OCC1(c2ccc(Cl)cc2)CCN(c2cccn3nc(Nc4cnn(CC5CCNCC5)c4)nc23)CC1 [Compound 1-1, [4-(4-chloropenyl)-1-[2-[[1-(4-piperidylmethyl)pyrazol-4-yl]amino]-[1,2,4]triazolo[1,5-a]pyridin-8-yl]-4-piperidyl]methanol; hydrochloride]	0.045	0.21
OCC1(c2ccc(Cl)cc2)CCN(c2cccn3nc(Nc4cnn(CCN5CCOCC5)c4)nc23)CC1 [Compound 1-2, [4-(4-chlorophenyl)-1-[2-[[1-(2-morpholinoethyl)pyrazol-4-yl]amino]-[1,2,4]triazolo[1,5-a]pyridin-8-yl]-4-piperidyl]methanol; formic acid]	0.16	0.52
OCC1(c2ccc(Cl)cc2)CCN(c2cccn3nc(Nc4cnn(C5CCN(Cc6ccccc6)CC5)c4)nc23)CC1 [Compound 1-3, [1-[2-[[1-(1-benzyl-4-piperidyl)pyrazol-4-yl]amino]-[1,2,4]triazolo[1,5-a]pyridin-8-yl]-4-(4-chlorophenyl)-4-piperidyl]methanol; formic acid]	0.38	0.63
N#CCCN1CCC(n2cc(Nc3nc4c(N5CCC(CO)(c6ccc(Cl)cc6)CC5)cccn4n3)cn2)CC1 [Compound 1-4, 3-[4-[4-[[8-[4-(4-chlorophenyl)-4-(hydroxymethyl)-1-piperidyl]-[1,2,4]triazolo[1,5-a]pyridin-2-yl]amino]pyrazol-1-yl]-1-piperidyl]propanenitrile]	0.11	0.27
OCC1(c2ccc(Cl)cc2)CCN(c2cccn3nc(Nc4cnn(C5CCNCC5)c4)nc23)CC1 [Compound 1-5, [4-(4-chlorophenyl)-1-[2-[[1-(4-piperidyl)pyrazol-4-yl]amino]-[1,2,4]triazolo[1,5-a]pyridin-8-yl]-4-piperidyl]methanol; formic acid]	0.12	0.23
OCC1(c2ccc(Cl)cc2)CCN(c2cccn3nc(Nc4cnn(Cc5ccncc5)c4)nc23)CC1 [Compound 1-6, [4-(4-chlorophenyl)-1-[2-[[1-(4-pyridylmethyl)pyrazol-4-yl]amino]-[1,2,4]triazolo[1,5-a]pyridin-8-yl]-4-piperidyl]methanol; formic acid]	0.12	0.45
OCCCn1cc(Nc2nc3c(N4CCC(CO)(c5ccc(Cl)cc5)CC4)cccn3n2)cn1 [Compound 1-7, 3-[4-[[8-[4-(4-chlorophenyl)-4-(hydroxymethyl)-1-piperidyl]-[1,2,4]triazolo[1,5-a]pyridin-2-yl]amino]pyrazol-1-yl]propan-1-ol]	0.11	0.18
CN(C)CCCn1cc(Nc2nc3c(N4CCC(CO)(c5ccc(Cl)cc5)CC4)cccn3n2)cn1 [Compound 1-8, [4-(4-chlorophneyl)-1-[2-[[1-[3-(dimethylamino)propyl]pyrazol-4-yl]amino]-[1,2,4]triazolo[1,5-a]pyridin-8-yl]-4-piperidyl]methanol; formic acid]	0.22	0.56
CN1CCN(CCCn2cc(Nc3nc4c(N5CCC(CO)(c6ccc(Cl)cc6)CC5)cccn4n3)cn2)CC1 [Compound 1-9, [4-(4-chlorophenyl)-1-[2-[[1-[3-(4-methylpiperazin-1-yl)propyl]pyrazol-4-yl]amino]-[1,2,4]triazolo[1,5-a]pyridin-8-yl]-4-piperidyl]methanol; formic acid]	0.26	0.55
OCC1(c2ccc(Cl)cc2)CCN(c2cccn3nc(Nc4cnn(CCCN5CCOCC5)c4)nc23)CC1 [Compound 1-10, [4-(4-chlorophenyl)-1-[2-[[1-(3-morpholinopropyl)pyrazol-4-yl]amino]-[1,2,4]triazolo[1,5-a]pyridin-8-yl]-4-piperidyl]methanol; formic acid]	0.16	0.33
CCCCn1cc(Nc2nc3c(N4CCC(CO)(c5ccc(Cl)cc5)CC4)cccn3n2)cn1 [Compound 1-11, [1-[2-[(1-butylpyrazol-4-yl)amino]-[1,2,4]triazolo[1,5-a]pyridin-8-yl]-4-(4-chlorophenyl)-4-piperidyl]methanol]	0.31	0.42
CN1CCC(n2cc(Nc3nc4c(N5CCC(CO)(c6ccc(Cl)cc6)CC5)cccn4n3)cn2)CC1 [Compound 1-12, [4-(4-chlorophenyl)-1-[2-[[1-(1-methyl-4-piperidyl)pyrazol-4-yl]amino]-[1,2,4]triazolo[1,5-a]pyridin-8-yl]-4-piperidyl]methanol; formic acid]	0.19	0.27
CC(C)CCn1cc(Nc2nc3c(N4CCC(CO)(c5ccc(Cl)cc5)CC4)cccn3n2)cn1 [Compound 1-13, [4-(4-chlorophenyl)-1-[2-[(1-isopentylpyrazol-4-yl)amino]-[1,2,4]triazolo[1,5-a]pyridin-8-yl]-4-piperidyl]methanol; formic acid]	0.44	0.75
OCC1(c2ccc(Cl)cc2)CCN(c2cccn3nc(Nc4cnn(CC(F)F)c4)nc23)CC1 [Compound 1-14, [4-(4-chlorophenyl)-1-[2-[[1-(2,2-difluoroethyl)pyrazol-4-yl]amino]-[1,2,4]triazolo[1,5-a]pyridin-8-yl]-4-piperidyl]methanol]	0.13	0.16
OCCn1cc(Nc2nc3c(N4CCC(CO)(c5ccc(Cl)cc5)CC4)cccn3n2)cn1 [Compound 1-15, 2-[4-[[8-[4-(4-chlorophenyl)-4-(hydroxymethyl)-1-piperidyl]-[1,2,4]triazolo[1,5-a]pyridin-2-yl]amino]pyrazol-1-yl]ethanol]	0.089	0.11
O=C(CCC(F)(F)F)N1CC=C(c2cccn3nc(Nc4cnn(CC(F)F)c4)nc23)CC1 [Compound 2-1, 1-[4-[2-[[1-(2,2-difluoroethyl)pyrazol-4-yl]amino]-[1,2,4]triazolo[1,5-a]pyridin-8-yl]-3,6-dihydro-2H-pyridin-1-yl]-4,4,4-trifluoro-butan-1-one]	0.88	0.74
O=C(CCC(F)(F)F)N1CC=C(c2cccn3nc(Nc4cnn(CCO)c4)nc23)CC1 [Compound 2-2, 4,4,4-trifluoro-1-[4-[2-[[1-(2-hydroxyethyl)pyrazol-4-yl]amino]-[1,2,4]triazolo[1,5-a]pyridin-8-yl]-3,6-dihydro-2H-pyridin-1-yl]butan-1-one]	0.71	0.87

— patent US20180327402A1, “TRIAZOLOPYRIDINE COMPOUNDS AND METHODS OF USE THEREOF” (Genentech, Inc., priority 2015, published 2018)
